Patent publication US20230339866A1, “Quinazoline compounds and the use thereof in the treatment of cancer” (TROBIO THERAPEUTICS PTY LTD, priority 2020, published 2023)
Read-outs that look alike come from different tables or passages of the source.

Tests used:
A549 (NSCLC) = test: Anti-proliferative activity (Cell-Titre luminescence) against A549 non-small cell lung cancer cells; type: cell-based; conditions: 72 h exposure, Cell-Titre luminescent reagent
Outline: (§1)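 EC50 derived by nonlinear variable-slope sigmoidal fit of luminescent Cell-Titre viability, normalised to vehicle control. Compound (0.1–30 μM, six concentrations) applied for 72 h after 24 h attachment at 37 °C, 5% CO2.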

[1] = system: A2780 ovarian cancer cells; test: cells; conditions: Homo sapiens, A2780, 72 h, read-out: IC50 values used for the dose matrix (compounds)
Experimental: (§3) The A2780 cell line was maintained as a monolayer in Dulbeccos Modified Eagles medium (DMEM) supplemented with 10% foetal bovine serum (FBS) and grown at 37° C. in a humidified atmosphere with 5% CO2. […] Each screening plate contained one 6×6 dose matrix for two drugs using two-fold dilution steps. […] Viability was measured after 72 hours using a standard MTS assay.
(§4) Synergistic drug interactions were determined for each pairwise drug combination by applying the Bliss-independence model that assumes independence of drug mechanisms.
(§5) The Bliss additivism model was used to calculate a predicted combined response C to two single agents with responses A and B (using GI values), as follows:
(§6) The final score for any combination was reported as the difference between the value predicted by the additive model and the experimentally observed value, normalised to 100. Using GI values the maximum possible synergy score is 100, with 0 indicating no synergy and negative indicating possible antagonism. Scores were also reported as a “Max synergy” score, which is the highest individual synergy score for each combination matrix, and a “Total synergy” score, which was obtained by summation of each individual synergy score for the matrix.

MIA PaCa-2 (pancreatic) = test: Anti-proliferative activity against MIA PaCa-2 pancreatic cancer cells; type: cell-based; conditions: Homo sapiens, 72 h exposure
Experimental: (§2) The ability of compounds of the invention to inhibit the proliferation of cancer cells representative of non-small cell lung cancer and ovarian cancer (Table 2), pancreatic cancer, colorectal cancer and prostate cancer (Table 3) was assessed. Briefly, a predetermined number of cells as calculated from cell growth assays for each of the cell lines employed were seeded into their respective culture medium (using ATCC culture parameters—http://www.atcc.org) and cultured for 24 h at 37° C. and 5% CO2 in 96-well culture plates. Once attached, each cell line was then exposed to various concentrations of each respective analogue (30, 10, 3, 1, 0.3 and 0.1 μM), cultured for a further 72 h and exposed to Cell-Titre luminescent reagent (100 μL/well) for a further 30 min. Luminescence was captured using an EnVision multilabel reader and the data for each analogue concentration compared against no treatment control. Cell viability was normalised to control (vehicle alone) and dose response curves, and half maximal effective concentration (EC50) values were determined using Graph Pad Prism 6 (nonlinear regression sigmoidal dose-response variable slope).

PC3 (prostate) = test: Anti-proliferative activity against PC3 prostate cancer cells; type: cell-based; conditions: 72 h exposure
Experimental: as §2

[2] = system: SK-N-SH neuroblastoma cells; test: Anti-proliferative activity (MTS assay) against SK-N-SH neuroblastoma cells; type: cell-based
Experimental: The ability of compounds of the disclosure to inhibit the proliferation of SK-N-SH neuroblastoma cells was also assessed. […] Cell viability was normalised to control (vehicle alone) and dose response curves and IC50 values (Table 4) were determined using Graph Pad Prism 6.

[3] = system: A2780 ovarian cancer cells
Experimental: as §3, §4, §5, §6

Caco-2 (colorectal) = test: Anti-proliferative activity against Caco-2 colorectal cancer cells; type: cell-based; conditions: Homo sapiens, 72 h exposure
Experimental: as §2

[4] = system: Tpm3.1-containing actin microfilaments; test: Disruption of Tpm3.1-containing actin microfilaments in SK-N-SH cells (imaging and quantitation); type: cell-based; conditions: SK-N-SH cells expressing Tpm3.1-mCherry, 24 hours, two concentrations
Experimental: The ability of compounds 57, 87 and 92 to disrupt Tpm3.1-containing actin microfilaments was investigated in SK-N-SH neuroblastoma cells that express Tpm3.1 labelled with the mCherry fluorophore. Cells were seeded at 3×10^4 cells per well in a volume of 1000 μL complete media onto a 12 well plate containing 13 mm coverslips and left to plate down for 24 hours prior to treatment. Cells were then treated with DMSO and two concentrations of the test compounds. 24 hours post-treatment, cells were fixed with 16% paraformaldehyde (PBS) and stained with 488-Atto-Phalloidin to visualise the actin filament bundles. Single plane images were obtained using the Olympus IX83 epi-fluorescence microscope. Ten fields of view were collected for both Tpm3.1 mCherry fluorophore (FIG. 4) and 488-Atto-Phalloidin (FIG. 5) with each treatment condition.
Quantitation of either Tpm3.1 mCherry filaments or 488-Atto-Phalloidin filaments was performed using ImageJ 1.52p software (ImageJ, NIH). The mean pixel intensity from a cell was measured by using a line across the entire cell cytoplasmic area above or below the nuclear region. The line was made to cross the filament bundles at a […] for the measurement rather than run along a single filament. A total of n=100 cells were measured from ten fields of view. Cells with pixel intensities that were more than twice the average intensity in the field were excluded from the measurement. The mean pixel intensity from n=100 cells was imported into Microsoft Excel to obtain the average intensity of either Tpm3.1 mCherry filaments or 488-Atto-Phalloidin filaments from each treatment condition. Values were normalised as a percent of the 0 μM control in order to generate a bar graph.

A2780 (ovarian) = test: Anti-proliferative activity (Cell-Titre luminescence) against A2780 ovarian cancer cells; type: cell-based; conditions: 72 h exposure, Cell-Titre luminescent reagent
Outline: as §1

Tpm3.1 = Tpm3.1 (Homo sapiens, UniProt P06753); test: Circular dichroism spectroscopy, thermal unfolding of Tpm3.1 peptides; type: binding; set-up: N-terminus (residues 2-80 with an initial Ala-Gly dipeptide to mimic N-terminal acetylation) of Tpm3.1; Peptides corresponding to the C-terminus (residues 139-248) and N-terminus; made in house; conditions: test compound 100 μM, peptide 20 μM, CD at 222 nm
Experimental: The interactions of compounds 11, 13, 32 and 92 with the N-terminus and overlap region of Tpm3.1 were measured using circular dichroism (CD) spectroscopy (see FIG. 1). Peptides corresponding to the C-terminus (residues 139-248) and N-terminus (residues 2-80 with an initial Ala-Gly dipeptide to mimic N-terminal acetylation) of Tpm3.1 were prepared as described in the literature (Janco et al., 2019). CD spectra and thermal unfolding isotherms of N_82AA_Tpm3.1 and C_109AA_Tpm3.1 peptides were acquired on a Chirascan Plus CD Spectrometer (Applied Photophysics Limited, U.K.) in stoppered 0.5 mm cuvettes (48/Q/0.5; Starna Scientific Ltd.). Proteins were dialyzed O/N against 10 mM NaH2 PO4, 150 mM NaCl, 75 μM TCEP (added prior to experiment), 1% (v/v) acetonitrile pH 7 buffer. Final concentration of peptides was 20 μM. Tpm samples containing the test compound (100 μM) were incubated at 37° C. O/N. CD spectra were measured from 195 to 260 nm with a 1 nm step size and a […], taking 3 to 4 averages at 37° C. The thermal unfolding was carried at 222 nm over the range 20-85° C. at the rate of 1° C./min. Sample was cooled down to the initial temperature and heating procedure was repeated 2 to 3 times. To obtain information of the major thermal transitions from individual isotherms, data were further smoothed by the Savitzky-Golay method (5-point window), differentiated and then fitted to multiple Gaussian peaks as described previously (Janco et al., 2012) (FIG. 2).

| SMILES | IC50 (A549 (NSCLC); Homo sapiens, A549, 72 h) [µM] | IC50 ([2]; Homo sapiens, SK-N-SH, 72 h) [µM] | IC50 (A2780 (ovarian); Homo sapiens, A2780, 72 h) [µM] | also measured |
| --- | --- | --- | --- | --- |
| Fc1cccc(CCNc2nc(NCCc3c[nH]cn3)c3ccccc3n2)c1 [Compound 87, N^4-(2-(1H-imidazol-4-yl)ethyl)-N^2-(3-fluorophenethyl)quinazoline-2,4-diamine] | 2.36 | 1.38 | 2.6 | IC50 [1]: 3000 nM; IC50 (MIA PaCa-2 (pancreatic)): 2.75 µM; IC50 (PC3 (prostate)): 4.12 µM; Paclitaxel Max. Synergy ([3]; combination with paclitaxel, Bliss score, highest individual score of 6×6 matrix): 9.54; Paclitaxel Total Synergy ([3]; combination with paclitaxel, Bliss score, sum over matrix): 28.53; Vinorelbine Max. Synergy ([3]; combination with vinorelbine, Bliss score, highest individual score of 6×6 matrix): 24.46; Vinorelbine Total Synergy ([3]; combination with vinorelbine, Bliss score, sum over matrix): 160.51; IC50 (Caco-2 (colorectal)): 4.33 µM; Disruption of Tpm3.1-containing actin microfilaments [4]: disrupt Tpm3.1-containing actin microfilaments in a dose-dependent manner |
| CN1CCN(CCNc2nc(-c3ccsc3)nc3ccccc23)CC1 [Compound 11, N-(2-(4-methylpiperazin-1-yl)ethyl)-2-(thiophen-3-yl)quinazolin-4-amine] | 10.3 | 9.11 | 6.43 | Effect on melting profile of the Tpm3.1 N-terminal peptide construct (Tpm3.1): alter the melting profile; Effect on stability (melting profile) of the overlap complex formed by the N- and C-terminal peptides (Tpm3.1): decreasing; Effect on stability of the Tpm3.1 N-terminal peptide (Tpm3.1): decrease the stability |
| CCc1ccc(CCNc2nc(NCCN3CCN(C)CC3)c3ccccc3n2)cc1 [Compound 57, N^2-(4-ethylphenethyl)-N^4-(2-(4-methylpiperazin-1-yl)ethyl)quinazoline-2,4-diamine] | 1.53 | 1.11 | 0.655 | IC50 (MIA PaCa-2 (pancreatic)): 1.02 µM; IC50 (PC3 (prostate)): 1.48 µM; IC50 (Caco-2 (colorectal)): 1.12 µM; Disruption of Tpm3.1-containing actin microfilaments [4]: disrupt Tpm3.1-containing actin microfilaments in a dose-dependent manner |
| CN1CCN(CCNc2nc(-c3cc[nH]c3)nc3ccccc23)CC1 [Compound 13, N-(2-(4-methylpiperazin-1-yl)ethyl)-2-(1H-pyrrol-3-yl)quinazolin-4-amine] | 6.5 | 1.72 | 5.65 | Effect on melting profile of the Tpm3.1 N-terminal peptide construct (Tpm3.1): alter the melting profile; Effect on stability of the Tpm3.1 N-terminal peptide (Tpm3.1): stabilizing effect |
| OCCNc1nc(NCc2ccc(C(F)(F)F)cc2)nc2ccccc12 [Compound 32, 2-((2-((4-(trifluoromethyl)benzyl)amino)quinazolin-4-yl)amino)ethan-1-ol] | 4.63 | 4.09 | 1.28 | Effect on melting profile of the Tpm3.1 N-terminal peptide construct (Tpm3.1): alter the melting profile; Effect on stability (melting profile) of the overlap complex formed by the N- and C-terminal peptides (Tpm3.1): increasing; Effect on stability of the Tpm3.1 N-terminal peptide (Tpm3.1): decrease the stability |
| CCC1=C[C@@H]2CN(C1)Cc1c([nH]c3ccccc13)[C@@](C(=O)OC)(c1cc3c(cc1OC)N(C)[C@H]1[C@@](O)(C(=O)OC)[C@H](OC(C)=O)[C@]4(CC)C=CCN5CC[C@]31[C@@H]54)C2 [vinorelbine, reference compound] | – | – | – | IC50 ([3]; read-out: IC50 values used for the dose matrix (cytotoxic agents), A2780, single agent, MTS 72 hours): 4 nM |
| COc1ccc(Nc2nc(NCCc3c[nH]cn3)c3ccccc3n2)cc1 [Compound 80, N^4-(2-(1H-imidazol-4-yl)ethyl)-N^2-(4-methoxyphenyl)quinazoline-2,4-diamine] | 4 | 2.87 | 3.33 | – |
| Fc1cccc(Nc2nc(NCCc3c[nH]cn3)c3ccccc3n2)c1 [Compound 83, N^4-(2-(1H-imidazol-4-yl)ethyl)-N^2-(3-fluorophenyl)quinazoline-2,4-diamine] | – | – | – | IC50 (A549 (NSCLC)): 9.16 µM; IC50 ([2]; 72 hours): 3.88 µM; IC50 (A2780 (ovarian)): 2.2 µM |
| CN(C)CCNc1nc(-c2ccsc2)nc2ccccc12 [Compound 96, N^1,N^1-dimethyl-N^2-(2-(thiophen-3-yl)quinazolin-4-yl)ethane-1,2-diamine] | 6.7 | 8.77 | 5.52 | – |
| FC(F)(F)c1cccc(CCNc2nc(NCCc3c[nH]cn3)c3ccccc3n2)c1 [Compound 84, N^4-(2-(1H-imidazol-4-yl)ethyl)-N^2-(3-(trifluoromethyl)phenethyl)quinazoline-2,4-diamine] | 1.39 | 1.26 | 1.51 | – |
| CN(C)CCCNc1nc(Nc2cccc(C(F)(F)F)c2)nc2ccccc12 [Compound 69, N^4-(3-(dimethylamino)propyl)-N^2-(3-(trifluoromethyl)phenyl)quinazoline-2,4-diamine] | 2.74 | 2.39 | 0.797 | – |
